In US10562912B2 (C&C Research Laboratories, priority 2013, dated 2020) one finds IC50 data, which are given here for 25 compounds.

A word on the IC50: it is the point on the concentration scale where inhibition reaches its midpoint. High values mean a need for much substance, low ones inhibition by little substance.

What all share (type): cell-based
For one assay, the system named is LNCaP. Put plainly: Cell growth inhibition assay, prostate cancer cell line LNCaP (medium with 10 ng/mL IL-6). The note with it: Homo sapiens, medium supplemented with 10 ng/mL of IL-6, 10,000 cells/well.
For another assay, the target named is T1, STAT3 (Homo sapiens, UniProt P40763).
T1 construct: plasmid pSTAT3-TA-luc), which contains a stably operating STAT3 promoter; endogenous in cells
Put plainly: STAT3 reporter gene assay (luciferase), LNCaP stable cell line (pSTAT3-TA-luc), IL-6 stimulation. Put shortly: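 Cytotoxicity was run on a duplicate plate with CellTiter-Glo, while the other plate gave luciferase read-outs from lysed LNCaP pSTAT3-TA-luc reporter cells. Cells were treated with graded compound concentrations plus IL-6 (10 ng/mL final) for 24–48 h in 3% DCC-FBS medium. Unstimulated and stimulated wells served as negative and positive controls.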

The test system of a further assay is MDA-MB-231. Nature of the assay: Cell growth inhibition assay, breast cancer cell line MDA-MB-231. The note with it: Homo sapiens; MDA-MB-231 breast cancer cell line, 5,000 cells/well.
In a further assay the test system is AGS. Put plainly: Cell growth inhibition assay, stomach cancer cell line AGS. The note with it: Homo sapiens; AGS stomach cancer cell line, 3,000 cells/well.

T1 sequence (P40763 whole entry): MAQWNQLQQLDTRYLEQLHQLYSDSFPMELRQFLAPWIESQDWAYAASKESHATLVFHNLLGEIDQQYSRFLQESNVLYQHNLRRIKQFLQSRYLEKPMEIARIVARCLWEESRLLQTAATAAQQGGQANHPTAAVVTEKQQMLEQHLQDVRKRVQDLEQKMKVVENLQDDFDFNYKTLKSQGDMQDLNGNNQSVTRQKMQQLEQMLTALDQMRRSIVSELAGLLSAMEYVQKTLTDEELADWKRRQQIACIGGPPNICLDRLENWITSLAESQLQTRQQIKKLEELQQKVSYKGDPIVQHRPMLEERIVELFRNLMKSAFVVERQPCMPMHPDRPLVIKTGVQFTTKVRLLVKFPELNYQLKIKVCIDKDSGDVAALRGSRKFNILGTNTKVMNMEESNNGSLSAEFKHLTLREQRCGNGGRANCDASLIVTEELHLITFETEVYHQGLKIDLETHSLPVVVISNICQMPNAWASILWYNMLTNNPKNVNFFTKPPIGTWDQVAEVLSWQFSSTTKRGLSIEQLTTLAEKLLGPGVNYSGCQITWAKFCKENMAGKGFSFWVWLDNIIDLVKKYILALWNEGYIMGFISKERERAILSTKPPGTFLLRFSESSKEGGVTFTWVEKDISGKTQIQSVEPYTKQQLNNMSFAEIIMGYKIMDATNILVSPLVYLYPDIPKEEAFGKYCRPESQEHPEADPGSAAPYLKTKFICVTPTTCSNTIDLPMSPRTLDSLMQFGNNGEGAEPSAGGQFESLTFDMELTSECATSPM

For `CS(=O)(=O)Nc1ccc2cc(C(=O)Nc3cccc(-c4ccccc4C(F)(F)F)c3)[nH]c2c1` [Example 260, 6-(methylsulfonamido)-N-(2′-(trifluoromethyl)-[1,1′-biphenyl]-3-yl)-1H-indole-2-carboxamide], the IC50 came to 4.1 µM with LNCaP, 0.71 µM on STAT3, 0.92 µM with MDA-MB-231 and 2.7 µM with AGS.
For `COc1cc(C(F)(F)F)c(-c2cccc(NC(=O)c3cc4ccc(NS(C)(=O)=O)cc4[nH]3)c2)cc1C(N)=O` [Example 377, N-(5′-carbamoyl-4′-methoxy-2′-(trifluoromethyl)-[1,1′-biphenyl]-3-yl)-6-(methylsulfonamido)-1H-indole-2-carboxamide], the IC50 was greater than 10 µM with LNCaP, greater than 10 µM on STAT3 and 15.2 µM in the assay on AGS.
In the case of `CS(=O)(=O)Nc1ccc2cc(C(=O)Nc3cccc(-c4cc(C(N)=O)c(O)cc4C(F)(F)F)c3)[nH]c2c1` [Example 378, N-(5′-carbamoyl-4′-hydroxy-2′-(trifluoromethyl)-[1,1′-biphenyl]-3-yl)-6-(methylsulfonamido)-1H-indole-2-carboxamide], the IC50 in the assay with LNCaP was greater than 10 µM; against STAT3, greater than 10 µM; in the assay with AGS, 39.9 µM.
Consider `CS(=O)(=O)Nc1ccc2cc(C(=O)Nc3cccc(-c4cc(C(N)=O)ccc4C(F)(F)F)c3)[nH]c2c1` [Example 379, N-(5′-carbamoyl-2′-(trifluoromethyl)-[1,1′-biphenyl]-3-yl)-6-(methylsulfonamido)-1H-indole-2-carboxamide], for which the IC50 in the assay with LNCaP is greater than 10 µM; at STAT3 it was greater than 10 µM; with AGS it was 30.1 µM.
Take `CS(=O)(=O)Nc1ccc2cc(C(=O)Nc3cccc(-c4cc(C(N)=O)ccc4Cl)c3)[nH]c2c1` [Example 380, N-(5′-carbamoyl-2′-chloro-[1,1′-biphenyl]-3-yl)-6-(methylsulfonamido)-1H-indole-2-carboxamide]: the IC50 in the assay on LNCaP is greater than 10 µM; on STAT3 it was greater than 10 µM; in the assay on AGS it was 42.6 µM.
For the compound `CS(=O)(=O)Nc1ccc2cc(C(=O)Nc3cc(-c4cc(C(N)=O)ccc4Cl)ccn3)[nH]c2c1` [Example 381, N-(4-(5-carbamoyl-2-chlorophenyl)pyridin-2-yl)-6-(methylsulfonamido)-1H-indole-2-carboxamide], the IC50 with LNCaP was greater than 10 µM; at STAT3, greater than 10 µM; with AGS, greater than 50 µM.
For the compound `CS(=O)(=O)Nc1ccc2cc(C(=O)Nc3cccc(-c4ccc(N)cc4C(F)(F)F)c3)[nH]c2c1` [Example 385, N-(4′-amino-2′-(trifluoromethyl)-[1,1′-biphenyl]-3-yl)-6-(methylsulfonamido)-1H-indole-2-carboxamide], the values for the IC50 with LNCaP, against STAT3 and in the assay on AGS were greater than 10 µM, 4.3 µM and 26.3 µM, respectively.
In the case of `CNc1ccc(-c2cccc(NC(=O)c3cc4ccc(NS(C)(=O)=O)cc4[nH]3)c2)c(C(F)(F)F)c1` [Example 386, N-(4′-(methylamino)-2′-(trifluoromethyl)-[1,1′-biphenyl]-3-yl)-6-(methylsulfonamido)-1H-indole-2-carboxamide], the IC50 was 8 µM with LNCaP, 3.4 µM at STAT3 and 7.6 µM in the assay with AGS.
Regarding `CS(=O)(=O)Nc1ccc2cc(C(=O)Nc3cccc(C(F)(F)c4ccncc4)c3)[nH]c2c1` [Example 388, N-(3-(difluoro(pyridin-4-yl)methyl)phenyl)-6-(methylsulfonamido)-1H-indole-2-carboxamide], the IC50 was determined as 8.2 µM in the assay with LNCaP, 3.8 µM against STAT3 and 9.8 µM in the assay with AGS.
As to `CS(=O)(=O)Nc1ccc2cc(C(=O)Nc3cccc(C(F)(F)c4ccccn4)c3)[nH]c2c1` [Example 389, N-(3-(difluoro(pyridin-2-yl)methyl)phenyl)-6-(methylsulfonamido)-1H-indole-2-carboxamide], the IC50 in the assay on LNCaP is 9.1 µM; against STAT3, 5.8 µM; in the assay on AGS it was 20.3 µM.
`CC(C)COc1cc(NC(=O)c2cc3ccc(NS(C)(=O)=O)cc3[nH]2)cc(C(F)(F)c2cccc(C#N)c2)c1` [Example 392, N-(3-((3-cyanophenyl)difluoromethyl)-5-isobutoxyphenyl)-6-(methylsulfonamido)-1H-indole-2-carboxamide]: the IC50 in the assay on LNCaP turned out to be 8.3 µM; at STAT3, 1.8 µM; with AGS, 9 µM.
In the case of `COc1ccc(S(=O)(=O)c2cccc(NC(=O)c3cc4ccc(NS(C)(=O)=O)cc4[nH]3)c2)cc1` [Example 394, N-(3-((4-methoxyphenyl)sulfonyl)phenyl)-6-(methylsulfonamido)-1H-indole-2-carboxamide], the IC50 was greater than 10 µM in the assay on LNCaP, 3.3 µM at STAT3 and 20 µM with AGS.
`CS(=O)(=O)Nc1ccc2cc(C(=O)Nc3cccc(S(=O)(=O)c4cccc(C#N)c4)c3)[nH]c2c1` [Example 402, N-(3-((3-cyanophenyl)sulfonyl)phenyl)-6-(methylsulfonamido)-1H-indole-2-carboxamide]: the values for the IC50 in the assay with LNCaP, at STAT3 and in the assay with AGS were greater than 10 µM, 6.3 µM and 22.1 µM, respectively.
The corresponding values for `CS(=O)(=O)Nc1ccc2cc(C(=O)Nc3cccc(S(=O)(=O)c4ccccn4)c3)[nH]c2c1` [Example 403, 6-(methylsulfonamido)-N-(3-(pyridin-2-ylsulfonyl)phenyl)-1H-indole-2-carboxamide] are greater than 10 µM, 8.2 µM and 34.4 µM.
Consider `CS(=O)(=O)Nc1ccc2cc(C(=O)Nc3cccc(S(=O)(=O)c4cccnc4)c3)[nH]c2c1` [Example 404, 6-(methylsulfonamido)-N-(3-(pyridin-3-ylsulfonyl)phenyl)-1H-indole-2-carboxamide], for which the IC50 was greater than 10 µM with LNCaP, greater than 10 µM on STAT3 and 30.3 µM in the assay with AGS.
In the case of `CS(=O)(=O)Nc1ccc2cc(C(=O)Nc3cccc(S(=O)(=O)c4cccc(Cl)c4)c3)[nH]c2c1` [Example 405, N-(3-((3-chlorophenyl)sulfonyl)phenyl)-6-(methylsulfonamido)-1H-indole-2-carboxamide], the IC50 in the assay with LNCaP came to 8.6 µM; against STAT3, 2.4 µM; in the assay with AGS, 14.6 µM.
In the case of `CS(=O)(=O)Nc1ccc2cc(C(=O)Nc3cccc(S(=O)(=O)c4cccc(C#N)n4)c3)[nH]c2c1` [Example 406, N-(3-((6-cyanopyridin-2-yl)sulfonyl)phenyl)-6-(methylsulfonamido)-1H-indole-2-carboxamide], the IC50 in the assay on LNCaP was greater than 10 µM; on STAT3, greater than 10 µM; in the assay on AGS, 17.6 µM.
With `COc1cncc(S(=O)(=O)c2cccc(NC(=O)c3cc4ccc(NS(C)(=O)=O)cc4[nH]3)c2)c1` [Example 407, N-(3-((5-methoxypyridin-3-yl)sulfonyl)phenyl)-6-(methylsulfonamido)-1H-indole-2-carboxamide], the values for the IC50 with LNCaP, against STAT3 and in the assay on AGS were greater than 10 µM, 5.7 µM and 45.5 µM, respectively.
As for `COc1cccc(S(=O)(=O)c2cccc(NC(=O)c3cc4ccc(NS(C)(=O)=O)cc4[nH]3)c2)n1` [Example 408, N-(3-((6-methoxypyridin-2-yl)sulfonyl)phenyl)-6-(methylsulfonamido)-1H-indole-2-carboxamide], the IC50 was greater than 10 µM in the assay on LNCaP, 2.4 µM on STAT3 and 24.2 µM in the assay on AGS.
On to `CS(=O)(=O)Nc1ccc2cc(C(=O)Nc3cccc(S(=O)(=O)c4ccc5sccc5c4)c3)[nH]c2c1` [Example 409, N-(3-(benzo[b]thiophen-5-ylsulfonyl)phenyl)-6-(methylsulfonamido)-1H-indole-2-carboxamide], for which the figures for the IC50 in the assay with LNCaP, against STAT3 and in the assay with AGS were greater than 10 µM, 2.9 µM and 17.3 µM, respectively.
`Cc1nc2ccc(S(=O)(=O)c3cccc(NC(=O)c4cc5ccc(NS(C)(=O)=O)cc5[nH]4)c3)cc2s1` [Example 410, N-(3-((2-methylbenzo[d]thiazol-6-yl)sulfonyl)phenyl)-6-(methylsulfonamido)-1H-indole-2-carboxamide]: the figures for the IC50 in the assay with LNCaP, against STAT3 and with AGS were greater than 10 µM, 3.1 µM and 31.3 µM, respectively.
Regarding `COc1cc(C#N)cc(S(=O)(=O)c2cccc(NC(=O)c3cc4ccc(NS(C)(=O)=O)cc4[nH]3)c2)c1` [Example 411, N-(3-((3-cyano-5-methoxyphenyl)sulfonyl)phenyl)-6-(methylsulfonamido)-1H-indole-2-carboxamide], the IC50 with LNCaP was greater than 10 µM; against STAT3, 3.6 µM; with AGS it was 35.2 µM.
Turning to `CS(=O)(=O)Nc1ccc2cc(C(=O)Nc3cccc(S(=O)(=O)c4cccc(CC#N)c4)c3)[nH]c2c1` [Example 412, N-(3-((3-(cyanomethyl)phenyl)sulfonyl)phenyl)-6-(methylsulfonamido)-1H-indole-2-carboxamide], the results for the half-inhibitory concentration (IC50) in the assay with LNCaP, against STAT3 and in the assay on AGS were greater than 10 µM, 3.4 µM and 22 µM, respectively.
The corresponding values for `CS(=O)(=O)Nc1ccc2cc(C(=O)Nc3cccc(S(=O)(=O)c4ccc5c(=O)ccoc5c4)c3)[nH]c2c1` [Example 413, 6-(methylsulfonamido)-N-(3-((4-oxo-4H-chromen-7-yl)sulfonyl)phenyl)-1H-indole-2-carboxamide] are greater than 10 µM, greater than 10 µM and greater than 50 µM.
As to `CS(=O)(=O)Nc1ccc2cc(C(=O)Nc3cccc(S(=O)(=O)c4cccc(Br)c4)c3)[nH]c2c1` [Example 414, N-(3-((3-bromophenyl)sulfonyl)phenyl)-6-(methylsulfonamido)-1H-indole-2-carboxamide], the figures for the IC50 in the assay on LNCaP, against STAT3 and in the assay on AGS were 9.6 µM, 1.7 µM and 14.4 µM, respectively.
